According to patent US20240239823A1, “PHOSPHINATE ESTER-CONTAINING DYES HAVING TUNABLE PROPERTIES AND METHODS OF MAKING THE SAME” (University of Virginia Patent Foundation, priority 2021, published 2024):

Columns and labels:
[1] = Aggregation in aqueous solution (absorbance versus concentration, SDS addition); format: physicochemical; settings: for effect of surfactant on absorbance: addition of 0.1% SDS, water; for aggregation / H-aggregate formation (blue-shifted absorbance band): aqueous solutions; for aggregation / H-aggregate formation (blue-shifted absorbance band) / linearity of absorbance versus concentration: increasing concentrations; for linearity of absorbance versus concentration: in water
From the text: FIG. 2.2A: The structure of methylene blue (MB) and NR751.

[2] = Quenching of dye absorbance by glutathione (GSH); format: physicochemical; settings: absence versus presence of GSH
From the text: The absorbance of NR708 in the absence or presence of GSH is shown.
In order to improve the chemical stability of NR dyes to nucleophiles found in biological systems, such as glutathione (GSH), bulky substituents were introduced to protect the C9 position of the dyes from nucleophilic attack. Accordingly, derivatives of NR700 and NR666, termed NR708 and NR675, respectively, were synthesized that bear bulky substituents on the pendant phenyl ring proximal to the C9 position of the dye (FIG. 3.1). […] The improved chemical stability of these dyes will provide brighter probes for imaging applications.

[3] = tested on: RAW 264.7 cells; assay: Confocal imaging of RAW 264.7 cells with or without stimulation to produce endogenous HOCl; format: cell-based; settings: 50 μM; cells producing HOCl
Method: FIGS. 5.2A-5.2C show phosphinate-containing dyes as gated small molecule delivery vehicles for cytotoxic compounds in cells. FIG. 5.2A: The structure of NR—HOCl-1541B (left). Selective reaction with HOCl results in the gated release of 1541B, a cytotoxic compound, and a fluorescent NR dye (right) FIG. 5.2B: Viability of RAW 264.7 macrophages in the presence or absence of stimulation to produce endogenous HOCl (LPS and PMA), cells were incubated with 50 μM 1541B or NR—HOCl-1541B where indicated. FIG. 5.2C: Confocal imaging of RAW 264.7 cells incubated with 50 μM NR—HOCl-1541B in the presence or absence of stimulation to produce endogenous HOCl.

## CN(C)c1ccc2nc3ccc(=[N+](C)C)cc-3sc2c1 [MB, methylene blue, reference compound]
[1]
  effect of surfactant on absorbance: reduces the intensity of the blue-shifted H-Aggregate absorption band
  aggregation / H-aggregate formation (blue-shifted absorbance band): increase in H-aggregate formation
  linearity of absorbance versus concentration: clear deviation from linearity

## COc1cccc(OC)c1C1=C2C=CC(=[N+](C)C)C=C2P(=O)(O)c2cc(N(C)C)ccc21 [NR675]
[2]
  quenching / change of absorbance in the presence of glutathione (GSH): virtually no quenching

## CC1=CC(=[N+](C)C)C=C2C1=Nc1c(C)cc(N(C)C)cc1P2(=O)O [NR751]
[1]
  effect of surfactant on absorbance: No change is observed in the absorbance
  aggregation / H-aggregate formation (blue-shifted absorbance band): significantly reduced aggregation
  linearity of absorbance versus concentration: clear linear increase in absorbance versus concentration

## CN(C)c1ccc2c(c1)P(=O)(Oc1cccc3cc(C(=O)Nc4cccc(-c5cn6ccccc6n5)c4)c(=O)oc13)c1cc(N(C)C)ccc1C21SCc2ccccc21 (centres unmarked) [NR—HOCl-1541B]
[3]
  fluorescence and payload delivery in cells: Clear evidence of fluorescence, and payload delivery
